In experiment [1] the test system is Ovis aries. The experiment in a line: Tested for anthelmintic efficacy against Haemonchus contortus at 0.1 mg/kg; range is 91-100%. The experiment is classed as functional.
Experiment [2] has as its system Trichostrongylus colubriformis. The experiment can be described thus: Tested in vivo for the biological efficacy using Trichostrongylus colubriformis gerbil assay. The experiment is classed as functional.
Experiment [3] relates to Ovis aries. The experiment can be described thus: Tested for the anthelmintic efficacy against Trichostrongylus colubriformis at 0.1 mg/kg; range is 76-90%. The experiment is classed as functional.
Experiment [4] has as its system Ovis aries. The experiment can be described thus: Tested for the anthelmintic efficacy against Ostertagia circumcincta at 0.1 mg/kg. The experiment is classed as functional.
Experiment [5] deals with Tetranychus urticae. The experiment in a line: Tested for acaricidal efficacy using a Tetranychus urticae (two-spotted spider mite, TSSM) contact assay. More on the design: concentration or dose not given beside the values. The experiment is classed as functional.
Experiment [6] has as its system Artemia salina. The experiment can be described thus: Tested in vitro for the biological efficacy using Artemia salina (brine shrimp) immobilization assay. The experiment is classed as functional.
Experiment [7] concerns Ovis aries. The experiment can be described thus: Tested for the anthelmintic efficacy against Trichostrongylus axei at 0.1 mg/kg; range is 51-75%. The experiment is classed as functional.
In experiment [8] the test system is Caenorhabditis elegans. The experiment can be described thus: Tested in vitro for the biological efficacy using Caenorhabditis elegans binding assay. The experiment is classed as functional, organism-based.
Experiment [9] deals with Ovis aries. The experiment can be described thus: Tested for the anthelmintic efficacy against Cooperia curticei at 0.1 mg/kg. The experiment is classed as functional.
The subject of experiment [10] is Ovis aries. The experiment can be described thus: Tested for the anthelmintic efficacy against Oesphagostomum columbianum at 0.1 mg/kg; range is 91-100%. The experiment is classed as functional.

Consider one compound from ChEMBL document CHEMBL1126980, “New, potent anthelmintic and acaricidal agents: 4-deoxy-4-thio-substituted avermectin derivatives” (Bioorg Med Chem Lett, 1993).

As usually defined, the IC50 is the point on the concentration scale where inhibition reaches its midpoint.

≈ marks a conversion by molar mass, not a printed value. Bounds are passed on as bounds.

With `CCC(C)[C@H]1O[C@]2(C=C[C@@H]1C)C[C@@H]1C[C@@H](C/C=C(\C)[C@@H](O[C@H]3C[C@H](OC)[C@@H](O[C@H]4C[C@H](OC)[C@@H](SCCO)[C@H](C)O4)[C@H](C)O3)[C@@H](C)/C=C/C=C3\CO[C@@H]4[C@H](O)C(C)=C[C@@H](C(=O)O1)[C@]34O)O2` (stereo not given in full), the Reduction is recorded as 91% in [1]; 76% in [3]; below 50% in experiment [4]; 51% in experiment [7]; below 50% in experiment [9]; 91% in experiment [10]. This compound had an ED85 in experiment [2] of 0.063 mg/kg. For the same compound, the Mortality in experiment [5] is reported as 70%. Further, in experiment [6], the IC100 stood at 870 ng/mL. In addition, the IC50 in [8] was 0.091 ng/mL (≈ 0.0975 nM).
